Test results as given in US20060094071A1 (priority 2002, published 2006).
Where no end group is shown, it is not given here. The star is where a group is joined. Propionyl = CCC(=O)*

Experiments:
PrP^Sc [1] = target: T1, PrP^Sc (Bos taurus, UniProt P10279); format: binding, cattle
PrP^Sc [2] = tested on: PrP^Sc
PrP^Sc [3] = target: T1, PrP^Sc; format: binding, cattle; settings: pH 3

Substance | PrP^Sc binding efficiency (relative) (PrP^Sc [1]) [%] | Extinction at 450 nm, BSE-positive versus BSE-negative animals (PrP^Sc [2]) | Elution efficiency (PrP^Sc [3])
Arg-Val-Val-Ile-Ala [Peptide 1] | 54.7 | – | –
Gly-Val-Val-Ile-Ala [Peptide 6] | 64.5 | – | –
Leu-Pro-Phe-Phe-Asp (LPFFD; beta-sheet binding peptide) [Peptide 3] | 46.6 | – | –
Lys-Leu-Val-Phe-Phe [Peptide 2] | 100.0 | significantly (t-test) raised | remained almost completely bound
Propionyl-DArg-DArg-DA1a-DPhe-DPhe-DVal-amide [Peptide 7] | 76.5 | – | –
Propionyl-IIGL [Peptide 4] | 55.1 | – | –
Propionyl-RIIGL [Peptide 5] | 58.1 | – | –
